Results as given in patent publication US20230131966A1, “FUNGICIDAL AMIDES” (FMC Corporation, priority 2020, published 2023).

Tests used:
Format in all cases: in vivo
[1] = tested on: Phakopsora pachyrhizi; assay: Test A: Asian soybean rust control on soybean seedlings; details: for Test A disease control rating / pest or weed control at 250 ppm: soybean seedlings, 100 = 100% disease control, 0 = no control; for pest or weed control at 250 ppm: Phakopsora pachyrhizi, read-out: Test A disease control rating
[2] = tested on: Puccinia recondita f. sp. tritici; assay: Test B: wheat leaf rust control on wheat seedlings; details: for Test B disease control rating / pest or weed control at 250 ppm: wheat seedlings, 100 = 100% disease control, 0 = no control; for pest or weed control at 250 ppm: Puccinia recondita, read-out: Test B disease control rating
[3] = tested on: Zymoseptoria tritici; assay: Test C: wheat leaf blotch control on wheat seedlings; details: for Test C disease control rating / pest or weed control at 250 ppm: wheat seedlings, 100 = 100% disease control, 0 = no control; for pest or weed control at 250 ppm: Zymoseptoria tritici, read-out: Test C disease control rating
[4] = tested on: Plasmopara viticola; assay: Test D: grape downy mildew control on grape seedlings; details: for Test D disease control rating / pest or weed control at 250 ppm: 100 = 100% disease control, 0 = no control; for pest or weed control at 250 ppm: Plasmopara viticola, read-out: Test D disease control rating
[5] = tested on: Botrytis cinerea; assay: Test E: tomato Botrytis control on tomato seedlings; details: for Test E disease control rating / pest or weed control at 250 ppm: 100 = 100% disease control, 0 = no control; for pest or weed control at 250 ppm: Botrytis cinerea, read-out: Test E disease control rating
[6] = tested on: Phytophthora infestans; assay: whole plant or invertebrate; details: tomato seedlings; for Test F disease control rating / pest or weed control at 250 ppm: 100 = 100% disease control, 0 = no control; for pest or weed control at 250 ppm: Phytophthora infestans, in Solanum lycopersicum, read-out: Test F disease control rating, 250 ppm
[7] = tested on: Erysiphe graminis f. sp. tritici; assay: Test G: wheat powdery mildew control on wheat seedlings; details: for Test G disease control rating / pest or weed control at 250 ppm: 100 = 100% disease control, 0 = no control; for pest or weed control at 250 ppm: Blumeria graminis, read-out: Test G disease control rating
[8] = rate 250 ppm, relative to the controls

Compound	Test A disease control rating ([1]; 250 ppm) [%]	Test B disease control rating ([2]; 250 ppm) [%]	Test C disease control rating ([3]; 250 ppm) [%]	Test D disease control rating ([4]; 250 ppm) [%]	Test E disease control rating ([5]; 250 ppm) [%]	Test F disease control rating ([6]; 250 ppm) [%]	Test G disease control rating ([7]; 250 ppm) [%]	further results
COc1ccnc(C(=O)N[C@@H](C)C(=O)OC(C)c2ccccc2Cc2ccc(F)cc2)c1OC(C)=O (single isomer, unassigned) [Compound 11]	0	19	13	30	0	0	0	–
COc1ccnc(C(=O)NC(C)C(=O)OC(C)c2ccccc2-n2ccc(C(F)(F)F)n2)c1O (mixture of isomers) [Compound 26]	73	0	47	43	0	0	0	–
COc1ccnc(C(=O)N[C@@H](C)C(=O)OC(C)c2ccc(C3CC3)cc2)c1O (mixture of isomers) [Compound 66, N-[(3-hydroxy-4-methoxy-2-pyridinyl)carbonyl]-L-alanine 1-(4-cyclopropylphenyl)ethyl ester]	–	–	–	–	–	–	–	pest or weed control at 250 ppm ([1]; 250 ppm): 100%; pest or weed control at 250 ppm ([2]; 250 ppm): 100%; pest or weed control at 250 ppm ([3]; 250 ppm): 73%; pest or weed control at 250 ppm ([4]; 250 ppm): 93%; pest or weed control at 250 ppm ([5]; 250 ppm): 0%; pest or weed control at 250 ppm [6]: 0%; pest or weed control at 250 ppm ([7]; 250 ppm): 21%
COc1cccc(C(=O)NC(C)C(=O)OC(C)c2ccccc2Cc2ccccc2)c1O (centres unmarked) [Compound 5]	0	0	0	73	0	39	0	–
COc1ccnc(C(=O)NC(C)C(=O)N(C)C(C)c2ccc(C3CCCCC3)cc2)c1OC(C)=O (mixture of isomers) [Compound 99]	98	68	88	39	0	0	0	–
CCC(OC(=O)[C@H](C)NC(=O)c1nccc(OC)c1OC(C)=O)c1ccc(C2CCCCC2)cc1 (single isomer, unassigned) [Compound 131]	100	96	87	6	0	0	89	–
COc1ccnc(C(=O)NC(C)C(=O)OC(C)c2ccc(C3CCCCC3)cc2)c1OC(=O)C(C)C (mixture of isomers) [Compound 154]	100	98	85	48	0	0	0	–
CCC(OC(=O)[C@H](C)NC(=O)c1nccc(OC)c1O)C1CCCCC1 (single isomer, unassigned) [Compound 167]	100	100	90	41	0	0	0	–
COc1ccnc(C(=O)NC(C)C(=O)OC(C)c2ccc(F)cc2)c1OC(C)=O (mixture of isomers) [Compound 15]	75	19	69	39	0	0	0	–
COc1ccnc(C(=O)NC(C)C(=O)OC(C)C2CCCCCC2)c1O (mixture of isomers) [Compound 102]	–	–	–	–	–	–	–	Test A disease control rating ([1]; 50 ppm): 100%; Test B disease control rating ([2]; 50 ppm): 55%; Test C disease control rating ([3]; 50 ppm): 0%; Test D disease control rating ([4]; 50 ppm): 72%; Test E disease control rating ([5]; 50 ppm): 0%; Test F disease control rating ([6]; 50 ppm): 0%; Test G disease control rating ([7]; 50 ppm): 0%
COc1cccc(C(=O)NC(C)C(=O)OC(C)C2CCCCC2)c1OC(C)=O (mixture of isomers) [Compound 92]	0	0	0	60	0	0	0	–
COc1ccnc(C(=O)N[C@@H](C)C(=O)OC(C)c2ccc(F)cc2Cc2ccccc2)c1O (single isomer, unassigned) [Compound 24]	97	68	5	61	0	0	0	–
COc1cccc(C(=O)NC(C)C(=O)OC(C)C2CCCCC2)c1O (mixture of isomers) [Compound 91]	0	0	2	96	0	0	0	–
COc1ccnc(C(=O)NC(C)C(=O)OC(C)c2ccccc2C(F)(F)F)c1OC(C)=O (mixture of isomers) [Compound 18]	62	68	93	35	0	0	0	–
COc1ccnc(C(=O)N[C@@H](C)C(=O)OC(C)C2CCCCC2)c1O (mixture of isomers) [Compound 30, N-[(3-hydroxy-4-methoxy-2-pyridinyl)carbonyl]-L-alanine 1-cyclohexylethyl ester]	–	–	–	–	–	–	–	pest or weed control at 250 ppm ([1]; 250 ppm): 100%; pest or weed control at 250 ppm ([2]; 250 ppm): 100%; pest or weed control at 250 ppm ([3]; 250 ppm): 97%; pest or weed control at 250 ppm ([4]; 250 ppm): 1%; pest or weed control at 250 ppm ([5]; 250 ppm): 0%; pest or weed control at 250 ppm [6]: 0%; pest or weed control at 250 ppm ([7]; 250 ppm): 0%
COc1ccnc(C(=O)N[C@@H](C)C(=O)OC(C)c2ccccc2Cc2ccc(F)cc2)c1OC(C)=O (single isomer, unassigned) [Compound 22]	100	99	85	61	0	0	0	–
COc1ccnc(C(=O)NC(C)C(=O)OC(C)C2COc3ccccc32)c1OC(C)=O (mixture of isomers) [Compound 191]	–	–	–	–	–	–	–	Test A disease control rating (100 = 100% disease control, 0 = no disease control) [1, 8]: 100%; Test B disease control rating (100 = 100% disease control, 0 = no disease control) [2, 8]: 96%; Test C disease control rating (100 = 100% disease control, 0 = no disease control) [3, 8]: 89%; Test D disease control rating (100 = 100% disease control, 0 = no disease control) [4, 8]: 26%; Test E disease control rating (100 = 100% disease control, 0 = no disease control) [5, 8]: 0%; Test F disease control rating (100 = 100% disease control, 0 = no disease control) [6, 8]: 0%; Test G disease control rating (100 = 100% disease control, 0 = no disease control) [7, 8]: 21%
